The record followed here is the supplement of paper PMC4314810.

± gives the standard deviation of the averaged measurements.

The subject of this data set is MCF7. In words: HRG-induced Akt activation (dPAkt = log2 pAkt/Akt HRG-stimulated minus log2 pAkt/Akt basal) (log2 ratio difference); higher = stronger HRG-induced Akt(T308) phosphorylation. Particulars: miRNA mimic concentration 10 nM; time after transfection 72 h; heregulin 10 ng/ml; stimulation time 1 h. The method, boiled down: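 MCF7 cells ([…], 96-well plates) carrying one of 879 miRNA mimics, transfected at 10 nM final with Lipofectamine RNAiMax in two biological replicates, were stimulated after 72 h with 10 ng/ml heregulin-beta1 for 1 h or left unstimulated. Phospho-Akt(T308) and total Akt in cells fixed with 4% PFA were read by In-Cell Western on an Odyssey and corrected for column-wise fixation decay to give log2(pAkt/Akt). Heregulin-induced Akt activation is the replicate mean of stimulated minus unstimulated ratios.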
As for ACCUUGCCUUGCUGCCCGGGCC, the “HRG-induced Akt activation (log2)” value came to 1.06 ± 0.23.
The result for ACGCCCUUCCCCCCCUUCUUCA reads 1.22 ± 0.47; that for ACGGAUGUUUGAGCAUGUGCUA, 2.15 ± 0.13; that for ACGGGUUAGGCUCUUGGGAGCU, 1.38 ± 0.043.
Under ACGGUGCUGGAUGUGGCCUUU stands 1.92 ± 0.082; under ACGUUGGCUCUGGUGGUG, 1.17 ± 0.014; under ACUCAAAACCCUUCAGUGACUU, 1.79 ± 0.18.
Turning to ACUCAAAAUGGGGGCGCUUUCC, the “HRG-induced Akt activation (log2)” value was determined as 1.51 ± 0.055.
In the case of ACUCAAACUGUGGGGGCACU, the “HRG-induced Akt activation (log2)” value was 0.915 ± 0.061.
As for ACUCCAGCCCCACAGCCUCAGC, the “HRG-induced Akt activation (log2)” value came to 1.84 ± 0.05.
For the sequence ACUCCAUUUGUUUUGAUGAUGGA, the “HRG-induced Akt activation (log2)” value stood at 1.19 ± 0.29.
The result for ACUCGGCGUGGCGUCGGUCGUG reads 2.34 ± 0.17; that for ACUCUAGCUGCCAAAGGCGCU, 1.02 ± 0.67; that for ACUCUUUCCCUGUUGCACUAC, 1.677 ± 0.0095.
The result for ACUGAUUUCUUUUGGUGUUCAG reads 1.47 ± 0.082.
For ACUGCAGUGAAGGCACUUGUAG, the “HRG-induced Akt activation (log2)” value stood at 1.646 ± 0.0061.
Under ACUGCAUUAUGAGCACUUAAAG stands 1.66 ± 0.41.
The result for ACUGCCCCAGGUGCUGCUGG reads 1.25 ± 0.16; that for ACUGCCCUAAGUGCUCCUUCUGG, 1.72 ± 0.1.
The result for ACUGCUGAGCUAGCACUUCCCG reads 1.04 ± 0.26.
With ACUGGACUUAGGGUCAGAAGGC, the “HRG-induced Akt activation (log2)” value worked out at 2.01 ± 0.38.
Under ACUGGACUUGGAGUCAGAAGG stands 1.47 ± 0.21; under ACUGGCUAGGGAAAAUGAUUGGAU, 1.24 ± 0.61; under ACUGGGGGCUUUCGGGCUCUGCGU, 1.6 ± 0.11.
With ACUGUAGUAUGGGCACUUCCAG, the “HRG-induced Akt activation (log2)” value was 1.46 ± 0.29.
Under ACUGUUGCUAAUAUGCAACUCU stands 0.931 ± 0.72; under ACUUAAACGUGGAUGUACUUGCU, 1.93 ± 0.26.
For ACUUACAGACAAGAGCCUUGCUC, the “HRG-induced Akt activation (log2)” value was found to be 1.68 ± 0.16.
The result for ACUUCACCUGGUCCACUAGCCGU reads 1.3 ± 0.29; that for ACUUGGGCACUGAAACAAUGUCC, 1.5 ± 0.025.
Turning to ACUUGUAUGCUAGCUCAGGUAG, the “HRG-induced Akt activation (log2)” value turned out to be 1.13 ± 0.012.
The result for ACUUUAACAUGGAAGUGCUUUC reads 1.17 ± 0.09; that for ACUUUAACAUGGAGGCACUUGC, 1.41 ± 0.029.
AGAAGGAAAUUGAAUUCAUUUA: the “HRG-induced Akt activation (log2)” value worked out at 2.39 ± 0.29.
In the case of AGAAUUGUGGCUGGACAUCUGU, the “HRG-induced Akt activation (log2)” value stood at 1.55 ± 0.022.
Under AGACCAUGGGUUCUCAUUGU stands 1.18 ± 0.43; under AGACCCUGGUCUGCACUCUAUC, 1.82 ± 0.41.
Under AGACCUGGCCCAGACCUCAGC stands 1.51 ± 0.39; under AGACUUCCCAUUUGAAGGUGGC, 1.52 ± 0.18; under AGAGAAGAAGAUCAGCCUGCA, 1.08 ± 0.5.
Under AGAGCUUAGCUGAUUGGUGAAC stands 1.58 ± 0.27.
On to AGAGGAUACCCUUUGUAUGUU, for which the “HRG-induced Akt activation (log2)” value is 1.23 ± 0.53.
Under AGAGGCUGGCCGUGAUGAAUUC stands 1.48 ± 0.024.
Under AGAGGUAGUAGGUUGCAUAGUU stands 1.08 ± 0.21.
The result for AGAGGUAUAGGGCAUGGGAA reads 1.88 ± 0.23.
Take AGAGGUUGCCCUUGGUGAAUUC: the “HRG-induced Akt activation (log2)” value was 1.6 ± 0.19.
In the case of AGAGUCUUGUGAUGUCUUGC, the “HRG-induced Akt activation (log2)” value was 2.38 ± 0.067.
Under AGAGUUGAGUCUGGACGUCCCG stands 1.98 ± 0.027; under AGAUCAGAAGGUGAUUGUGGCU, 1.56 ± 0.3; under AGAUCGACCGUGUUAUAUUCGC, 2.02 ± 0.14.
The result for AGCAGAAGCAGGGAGGUUCUCCCA reads 1.55 ± 0.054.
The result for AGCAGCAUUGUACAGGGCUAUCA reads 1.35 ± 0.26.
On to AGCAGCAUUGUACAGGGCUAUGA, for which the “HRG-induced Akt activation (log2)” value was found to be 1.45 ± 0.015.
On to AGCCUGAUUAAACACAUGCUCUGA, for which the “HRG-induced Akt activation (log2)” value is 1.23 ± 0.11.
Under AGCCUGGAAGCUGGAGCCUGCAGU stands 1.35 ± 0.14; under AGCUACAUCUGGCUACUGGGU, 1.48 ± 0.25.
The result for AGCUACAUUGUCUGCUGGGUUUC reads 1.72 ± 0.17; that for AGCUCGGUCUGAGGCCCCUCAGU, 0.753 ± 0.54; that for AGCUGGUGUUGUGAAUCAGGCCG, 1.87 ± 0.075.
For AGCUGUCUGAAAAUGUCUU, the “HRG-induced Akt activation (log2)” value amounted to 1.08 ± 0.3.
The result for AGCUUCUUUACAGUGCUGCCUUG reads 1.68 ± 0.2; that for AGGAAGCCCUGGAGGGGCUGGAG, 1.1 ± 0.6; that for AGGAAUGUUCCUUCUUUGCC, 1.91 ± 0.039.
For AGGACCUGCGGGACAAGAUUCUU, the “HRG-induced Akt activation (log2)” value stood at 1.6 ± 0.091.
Under AGGAGGCAGCGCUCUCAGGAC stands 1.54 ± 0.61; under AGGAUGAGCAAAGAAAGUAGAUU, 1.13 ± 0.25.
Under AGGCAAGAUGCUGGCAUAGCU stands 1.18 ± 0.13; under AGGCACCAGCCAGGCAUUGCUCAGC, 1.51 ± 0.2; under AGGCACGGUGUCAGCAGGC, 1.2 ± 0.26.
Under AGGCAGCGGGGUGUAGUGGAUA stands 1.58 ± 0.27; under AGGCAGUGUAGUUAGCUGAUUGC, 2.22 ± 0.041.
In the case of AGGCAGUGUAUUGUUAGCUGGC, the “HRG-induced Akt activation (log2)” value came out at 1.91 ± 0.036.
Under AGGCAUUGACUUCUCACUAGCU stands 1.66 ± 0.32; under AGGCGGAGACUUGGGCAAUUG, 2.43 ± 0.29.
Under AGGCGGGGCGCCGCGGGACCGC stands 1.22 ± 0.12; under AGGCUGCGGAAUUCAGGAC, 1.56 ± 0.23.
On to AGGGACGGGACGCGGUGCAGUG, for which the “HRG-induced Akt activation (log2)” value is 1.15 ± 0.12.
Under AGGGACUUUCAGGGGCAGCUGU stands 1.48 ± 0.18.
Under AGGGAGGGACGGGGGCUGUGC stands 1.89 ± 0.16.
The result for AGGGAUCGCGGGCGGGUGGCGGCCU reads 1.03 ± 0.13; that for AGGGCCCCCCCUCAAUCCUGU, 1.95 ± 0.39.
With AGGGCUUAGCUGCUUGUGAGCA, the “HRG-induced Akt activation (log2)” value was found to be 1.75 ± 0.56.
Under AGGGGCUGGCUUUCCUCUGGUC stands 1.57 ± 0.17; under AGGGGGAAAGUUCUAUAGUCC, 1.2 ± 0.07; under AGGGGUGCUAUCUGUGAUUGA, 1.68 ± 0.19.
In the case of AGGGGUGGUGUUGGGACAGCUCCGU, the “HRG-induced Akt activation (log2)” value was 2.91 ± 0.23.
In the case of AGGGUAAGCUGAACCUCUGAU, the “HRG-induced Akt activation (log2)” value was 1.51 ± 0.17.
Under AGGGUGUUUCUCUCAUCUCU stands 2.04 ± 0.21.
Under AGGUGGUCCGUGGCGCGUUCGC stands 2.93 ± 0.32; under AGGUUACCCGAGCAACUUUGCAU, 0.732 ± 0.16.
Under AGGUUGACAUACGUUUCCC stands 1.43 ± 0.13.
For the sequence AGGUUGGGAUCGGUUGCAAUGCU, the “HRG-induced Akt activation (log2)” value stood at 1.59 ± 0.021.
Take AGGUUGUCCGUGGUGAGUUCGCA: the “HRG-induced Akt activation (log2)” value is 1.02 ± 0.18.
As for AGUAUGUUCUUCCAGGACAGAAC, the “HRG-induced Akt activation (log2)” value came to 1.83 ± 0.087.
AGUAUUCUGUACCAGGGAAGGU: the “HRG-induced Akt activation (log2)” value came out at 1.96 ± 0.043.
Under AGUCAUUGGAGGGUUUGAGCAG stands 1.86 ± 0.057; under AGUGAAUGAUGGGUUCUGACC, 1.879 ± 0.002; under AGUGCCUGAGGGAGUAAGAGCCC, 1.72 ± 0.04.
The result for AGUGGGGAACCCUUCCAUGAGG reads 1.94 ± 0.25.
The result for AGUGUGGCUUUCUUAGAGC reads 0.799 ± 1.1; that for AGUUAAUGAAUCCUGGAAAGU, 1.46 ± 0.25.
Consider AGUUAGGAUUAGGUCGUGGAA, for which the “HRG-induced Akt activation (log2)” value was 1 ± 0.39.
Under AGUUCUUCAGUGGCAAGCUUUA stands 0.966 ± 0.66.
As for AGUUUUGCAGGUUUGCAUCCAGC, the “HRG-induced Akt activation (log2)” value worked out at 1.36 ± 0.22.
The result for AGUUUUGCAGGUUUGCAUUUCA reads 1.13 ± 0.15; that for AGUUUUGCAUAGUUGCACUACA, 1.37 ± 0.032.
Under AUAAAGCUAGAUAACCGAAAGU stands 2.04 ± 0.33; under AUAAGACGAACAAAAGGUUUGU, 1.75 ± 0.072; under AUAAGACGAGCAAAAAGCUUGU, 1.73 ± 0.05.
Under AUAAUACAUGGUUAACCUCUUU stands 1.2 ± 0.064.
With AUAUAAUACAACCUGCUAAGUG, the “HRG-induced Akt activation (log2)” value was 0.999 ± 0.15.
For AUAUAUGAUGACUUAGCUUUU, the “HRG-induced Akt activation (log2)” value was 2.03 ± 0.027.
Turning to AUAUUACCAUUAGCUCAUCUUU, the “HRG-induced Akt activation (log2)” value came to 1.42 ± 0.089.
As for AUCAACAGACAUUAAUUGGGCGC, the “HRG-induced Akt activation (log2)” value is 2.3 ± 0.38.
Under AUCACACAAAGGCAACUUUUGU stands 1.78 ± 0.33; under AUCACAUUGCCAGGGAUUACC, 1.54 ± 0.03.
The result for AUCACAUUGCCAGGGAUUUCC reads 1.12 ± 0.24.
